Assay results reported in patent publication US12351596B2 (priority 2019, dated 2025).
Entries after “also recorded” stand apart in the source; their conditions may differ.

Test system: antibodies present in serum samples from melioidosis patients
Assay type: binding, human

Which “ability to detect antibodies present in serum samples from melioidosis patients” value does the source give for `CO[C@H]1[C@@H](OC(C)=O)[C@H](O[C@@H]2[C@@H](O)[C@H](O[C@@H]3[C@H](O)[C@H](C)O[C@@H](O[C@@H]4[C@@H](O)[C@H](OCCCCCN)O[C@H](CO)[C@H]4O)[C@@H]3OC(C)=O)O[C@H](CO)[C@H]2O)O[C@@H](C)[C@H]1OC(C)=O.Cl` [tetrasaccharide 8, (5-Amino-1-pentyl) 2,4-di-O-acetyl-6-deoxy-3-O-methyl-α-L-talopyranosyl-(1→3)-β-D-glucopyranosyl-(1→3)-2-O-acetyl-6-deoxy-α-L-talopyranosyl-(1→3)-β-D-glucopyranoside hydrochloride] here?
The value was “exquisite mimics of the whole Bp and Bm LPS OAgs; also recorded: able to detect antibodies present in serum samples from melioidosis patients”.

Which results are given for “(5-Amino-1-pentyl) 2-O-acetyl-6-deoxy-3-O-methyl-α-L-talopyranosyl-(1→3)-β-D-glucopyranosyl-(1→3)-2-O-acetyl-6-deoxy-α-L-talopyranosyl-(1→3)-δ-D-glucopyranoside hydrochloride [tetrasaccharide 9]”?
ability to detect antibodies present in serum samples from melioidosis patients: exquisite mimics of the whole Bp and Bm LPS OAgs; also recorded: able to detect antibodies present in serum samples from melioidosis patients; ability to detect the antibodies compared with other antigens: as effective as tetrasaccharide 8
